Results: the NIST ThermoML archive (doi:10.1016/j.fluid.2016.10.026)

Conditions: for surface tension liquid-gas: Drop volume; for kinematic viscosity / speed of sound / mass density: Liquid; for kinematic viscosity: Capillary tube (Ostwald / Ubbelohde) method; for speed of sound: Frequency=3 MHz, Sing-around technique in a fixed-path interferometer; for mass density: Vibrating tube method

CC(=O)c1cccs1 [2-acetylthiophene]
Conditions | surface tension liquid-gas [mN/m]
278.15 K | 45.41
280.65 K | 45.14
283.15 K | 44.83
285.65 K | 44.58
288.15 K | 44.31
290.65 K | 44.01
293.15 K | 43.73
295.65 K | 43.46
298.15 K | 43.16

Conditions | kinematic viscosity [m2/s] | mass density [kg/m3] | speed of sound [m/s]
278.15 K, 101 kPa | 3.7e-06 | 1185.43 | 1538.3
280.65 K, 101 kPa | 3.44e-06 | 1183.04 | 1529.7
283.15 K, 100 kPa | – | 1180.61 | –
283.15 K, 101 kPa | 3.21e-06 | 1180.64 | 1521.2
283.15 K, 2000 kPa | – | 1181.78 | –
283.15 K, 5000 kPa | – | 1183.44 | –
283.15 K, 7000 kPa | – | 1184.54 | –
283.15 K, 10000 kPa | – | 1186.17 | –
283.15 K, 15000 kPa | – | 1188.81 | –
283.15 K, 20000 kPa | – | 1191.4 | –
283.15 K, 25000 kPa | – | 1193.92 | –
283.15 K, 30000 kPa | – | 1196.37 | –
283.15 K, 35000 kPa | – | 1198.77 | –
283.15 K, 40000 kPa | – | 1201.11 | –
283.15 K, 45000 kPa | – | 1203.39 | –
285.65 K, 101 kPa | 3e-06 | 1178.25 | 1512.7
288.15 K, 100 kPa | – | 1175.97 | –
288.15 K, 101 kPa | 2.81e-06 | 1175.86 | 1503.9
288.15 K, 2000 kPa | – | 1177.04 | –
288.15 K, 5000 kPa | – | 1178.73 | –
288.15 K, 7000 kPa | – | 1179.85 | –
288.15 K, 10000 kPa | – | 1181.52 | –
288.15 K, 15000 kPa | – | 1184.21 | –
288.15 K, 20000 kPa | – | 1186.85 | –
288.15 K, 25000 kPa | – | 1189.43 | –
288.15 K, 30000 kPa | – | 1191.93 | –
288.15 K, 35000 kPa | – | 1194.37 | –
288.15 K, 40000 kPa | – | 1196.76 | –
288.15 K, 45000 kPa | – | 1199.09 | –
290.65 K, 101 kPa | 2.64e-06 | 1173.47 | 1495
293.15 K, 100 kPa | – | 1171 | –
293.15 K, 101 kPa | 2.51e-06 | 1171.07 | 1486.3
293.15 K, 2000 kPa | – | 1172.28 | –
293.15 K, 5000 kPa | – | 1174.02 | –
293.15 K, 7000 kPa | – | 1175.16 | –
293.15 K, 10000 kPa | – | 1176.85 | –
293.15 K, 15000 kPa | – | 1179.61 | –
293.15 K, 20000 kPa | – | 1182.3 | –
293.15 K, 25000 kPa | – | 1184.93 | –
293.15 K, 30000 kPa | – | 1187.48 | –
293.15 K, 35000 kPa | – | 1189.98 | –
293.15 K, 40000 kPa | – | 1192.41 | –
293.15 K, 45000 kPa | – | 1194.78 | –
293.15 K, 50000 kPa | – | 1197.1 | –
293.15 K, 55000 kPa | – | 1199.35 | –
293.15 K, 60000 kPa | – | 1201.56 | –
293.15 K, 65000 kPa | – | 1203.71 | –
295.65 K, 101 kPa | 2.35e-06 | 1168.68 | 1477.8
298.15 K, 100 kPa | – | 1166.24 | –
298.15 K, 101 kPa | 2.22e-06 | 1166.29 | 1469
